# Values quoted from earlier work as cited in Sander's compilation of Henry's law constants (doi:10.1021/ci0256485).
# Assay: Henry solubility constant Hcp at 298.15 K (mol/(m3 Pa))
# Conditions: reference: Delgado and Alderete (2003); cited value
row,Compound,Henry solubility constant Hcp
1,CCNc1nc(NC(C)C)nc(SC)n1 [ametryn],4100
2,Cc1nnc(-c2ccccc2)c(=O)n1N [metamitron],2.2e+06
